In ChEMBL document CHEMBL1140624, “Improved biochemical strategies for targeted delivery of taxoids” (Bioorg Med Chem, 2007):
≈ marks a conversion by molar mass, not a printed value. Calls of active or inactive are those of the source. The calls are words filed in the database; no cut-off is given here.

Key:
[1] = Half life in presence of 30 ug/mL beta-glucuronidase assessed as taxol release at 30 ug/mL; assay type: ADME
LoVo [2] = assay: Cytotoxicity against human LoVo cells in presence of beta-glucuronidase; assay type: functional, cell-based
LoVo [3] = assay: Ratio of IC50 of drug for human LoVo cells to IC50 of taxol for human LoVo cells; assay type: functional
OVCAR-3 [4] = assay: Cytotoxicity against human OVCAR-3 cells; assay type: functional, cell-based
OVCAR-3 [5] = assay: Cytotoxicity against human OVCAR-3 cells in presence of beta-glucuronidase; assay type: functional, cell-based
[6] = Half life in presence of 10 uM beta-glucuronidase assessed as taxol release at 100 uM; assay type: ADME
MCF7 [7] = assay: Cytotoxicity against ERalpha positive human MCF7 cells; assay type: functional, cell-based
[8] = Cytotoxicity against human IGROV cells; assay type: functional, cell-based
MCF7 [9] = assay: Cytotoxicity against human MCF7 cells; assay type: functional, cell-based
MDA-MB-231 = assay: Cytotoxicity against ERalpha negative human MDA-MB-231 cells; assay type: functional, cell-based
[10] = system: M19 melanoma cell line (human); assay: Cytotoxicity against human M19 melanoma cells
A498 = assay: Cytotoxicity against human A498 cells; assay type: functional, cell-based
[11] = Cytotoxicity against human H226 cells; assay type: functional, cell-based; conditions: NCI-H226
PC-3 = assay: Cytotoxicity against ERbeta positive human PC3 cells; assay type: functional, cell-based
EVSA-T = assay: Cytotoxicity against human EVSA-T cells; assay type: functional, cell-based
WiDr = assay: Cytotoxicity against human WIDR cells; assay type: functional, cell-based
[12] = Aqueous solubility of the compound; assay type: physicochemical; conditions: aqueous solution
A2780 = assay: Cytotoxicity against ERbeta negative human A2780 cells; assay type: functional, cell-based
[13] = Half life in DTT buffer assessed as taxol release; assay type: ADME

Question: For `CC(=O)O[C@H]1C(=O)[C@@]2(C)[C@H]([C@H](OC(=O)c3ccccc3)[C@]3(O)C[C@H](OC(=O)C(OC(=O)N(C)CCN(C)C(=O)OCc4ccc(O[C@@H]5O[C@H](C(=O)O)[C@@H](O)[C@H](O)[C@H]5O)c(N)c4)[C@@H](NC(=O)c4ccccc4)c4ccccc4)C(C)=C1C3(C)C)[C@]1(OC(C)=O)CO[C@@H]1C[C@@H]2O` (some centres undefined), which t1/2 [1] is on record?
Answer: Its t1/2 is 10 min.

Question: What about the Activity (LoVo [2]) of the same molecule?
Answer: Its Activity is “inactive”.

Question: What about the “Ratio IC50” value (LoVo [3]) of the same molecule?
Answer: Its value is 153.

Question: Which IC50 (OVCAR-3 [4]) does the source give for `CC(=O)O[C@H]1C(=O)[C@@]2(C)[C@H]([C@H](OC(=O)c3ccccc3)[C@]3(O)C[C@H](OC(=O)[C@H](OC(=O)Cc4ccc(NC(=O)O[C@@H]5O[C@H](C(=O)O)[C@@H](O)[C@H](O)[C@H]5O)cc4)[C@@H](NC(=O)c4ccccc4)c4ccccc4)C(C)=C1C3(C)C)[C@]1(OC(C)=O)CO[C@@H]1C[C@@H]2O` here?
Answer: Its IC50 is 0.23 nM.

Question: What about the IC50 (OVCAR-3 [5]) of the same molecule?
Answer: Its IC50 is 0.23 nM.

Question: Which t1/2 [6] does the source give for `CC(=O)O[C@H]1C(=O)[C@@]2(C)[C@H]([C@H](OC(=O)c3ccccc3)[C@]3(O)C[C@H](OC(=O)[C@H](OC(=O)CCc4ccc(NC(=O)O[C@@H]5O[C@H](C(=O)[O-])[C@@H](O)[C@H](O)[C@H]5O)cc4)[C@@H](NC(=O)c4ccccc4)c4ccccc4)C(C)=C1C3(C)C)[C@]1(OC(C)=O)CO[C@@H]1C[C@@H]2O.[Na+]` here?
Answer: Its t1/2 is 45 min.

Question: What about the IC50 (OVCAR-3 [4]) of the same molecule?
Answer: Its IC50 is 27 nM.

Question: And the IC50 (OVCAR-3 [5])?
Answer: The IC50 was 1.1 nM.

Question: With `CC(=O)O[C@H]1C(=O)[C@@]2(C)[C@H]([C@H](OC(=O)c3ccccc3)[C@]3(O)C[C@H](OC(=O)[C@H](OC(=O)NCCNC(=O)[C@H](CCCCN)NC(=O)[C@H](Cc4ccccc4)NC(=O)[C@@H](C)N)[C@@H](NC(=O)c4ccccc4)c4ccccc4)C(C)=C1C3(C)C)[C@]1(OC(C)=O)CO[C@@H]1C[C@@H]2O.Cl` as the molecule, how does the IC50 (MCF7 [7]) read?
Answer: The IC50 was 4.9 nM.

Question: And the IC50 [8]?
Answer: The IC50 was 0.019 µg/mL.

Question: What about the IC50 (MCF7 [9]) of the same molecule?
Answer: The IC50 was 0.016 µg/mL.

Question: And the IC50 (MDA-MB-231)?
Answer: Its IC50 is 4.5 nM.

Question: And the IC50 [10]?
Answer: Its IC50 is 0.045 µg/mL.

Question: And the IC50 (A498)?
Answer: The IC50 was 0.04 µg/mL.

Question: And the IC50 [11]?
Answer: Its IC50 is 0.041 µg/mL.

Question: What about the IC50 (PC-3) of the same molecule?
Answer: Its IC50 is 77 nM.

Question: What about the IC50 (EVSA-T) of the same molecule?
Answer: Its IC50 is 0.011 µg/mL.

Question: What about the IC50 (WiDr) of the same molecule?
Answer: Its IC50 is 0.013 µg/mL.

Question: Which IC50 (MCF7 [9]) does the source give for `CC(=O)O[C@H]1C(=O)[C@]2(C)[C@@H](OC(=O)C[C@H](O)C(=O)O)C[C@H]3OC[C@@]3(OC(C)=O)[C@H]2[C@H](OC(=O)c2ccccc2)[C@]2(O)C[C@H](OC(=O)[C@H](OC(=O)C[C@H](O)C(=O)O)[C@@H](NC(=O)c3ccccc3)c3ccccc3)C(C)=C1C2(C)C` here?
Answer: The IC50 was 0.069 µg/mL (≈ 0.0635 µM).

Question: What about the solubility [12] of the same molecule?
Answer: Its solubility is 500 µg/mL (≈ 460 µM).

Question: And the IC50 (EVSA-T)?
Answer: The IC50 was 0.059 µg/mL (≈ 0.0543 µM).

Question: For `CC(=O)O[C@H]1C(=O)[C@@]2(C)[C@H]([C@H](OC(=O)c3ccccc3)[C@]3(O)C[C@H](OC(=O)[C@H](OC(=O)CCC(=O)O[C@@H]4C[C@]5(C)[C@@H](O)CC[C@H]5[C@@H]5CCc6cc(O)ccc6[C@H]54)[C@@H](NC(=O)c4ccccc4)c4ccccc4)C(C)=C1C3(C)C)[C@]1(OC(C)=O)CO[C@@H]1C[C@@H]2O`, which IC50 (MCF7 [7]) is on record?
Answer: The IC50 was 62 nM.

Question: What about the IC50 (A2780) of the same molecule?
Answer: Its IC50 is 680 nM.

Question: And the IC50 (MDA-MB-231)?
Answer: Its IC50 is 51 nM.

Question: What about the IC50 (PC-3) of the same molecule?
Answer: Its IC50 is 40 nM.

Question: Which t1/2 [1] does the source give for `CC(=O)O[C@H]1C(=O)[C@@]2(C)[C@H]([C@H](OC(=O)c3ccccc3)[C@]3(O)C[C@H](OC(=O)[C@H](OC(=O)N(C)CCN(C)C(=O)OCc4ccc(O[C@@H]5O[C@H](C(=O)O)[C@@H](O)[C@H](O)[C@H]5O)c(N)c4)[C@@H](NC(=O)OC(C)(C)C)c4ccccc4)C(C)=C1C3(C)C)[C@]1(OC(C)=O)CO[C@@H]1C[C@@H]2O` here?
Answer: Its t1/2 is 10 min.

Question: What about the Activity (LoVo [2]) of the same molecule?
Answer: Its Activity is “inactive”.

Question: What about the “Ratio IC50” value (LoVo [3]) of the same molecule?
Answer: Its value is 187.

Question: For `CC(=O)O[C@H]1C(=O)[C@@]2(C)[C@H]([C@H](OC(=O)c3ccccc3)[C@]3(O)C[C@H](OC(=O)[C@H](OC(=O)C(C)(C)CCSSc4ccccn4)[C@@H](NC(=O)c4ccccc4)c4ccccc4)C(C)=C1C3(C)C)[C@]1(OC(C)=O)CO[C@@H]1C[C@@H]2O`, which t1/2 [13] is on record?
Answer: The t1/2 was 4 min.

Question: With `CC(=O)O[C@H]1C(=O)[C@@]2(C)[C@H]([C@H](OC(=O)c3ccccc3)[C@]3(O)C[C@H](OC(=O)[C@H](OC(=O)C[C@H](O)C(=O)[O-])[C@@H](NC(=O)c4ccccc4)c4ccccc4)C(C)=C1C3(C)C)[C@]1(OC(C)=O)CO[C@@H]1C[C@@H]2O.[Na+]` as the molecule, how does the IC50 (MCF7 [9]) read?
Answer: The IC50 was < 0.003 µg/mL.

Question: And the solubility [12]?
Answer: The solubility was 600 µg/mL.

Question: And the IC50 (EVSA-T)?
Answer: Its IC50 is < 0.003 µg/mL.

Question: With `CC(=O)O[C@H]1C(=O)[C@@]2(C)[C@H]([C@H](OC(=O)c3ccccc3)[C@]3(O)C[C@H](OC(=O)[C@H](OC(=O)OC/C=C/c4ccc([N+](=O)[O-])cc4)[C@@H](NC(=O)c4ccccc4)c4ccccc4)C(C)=C1C3(C)C)[C@]1(OC(C)=O)CO[C@@H]1C[C@@H]2O` as the molecule, how does the IC50 [8] read?
Answer: The IC50 was 0.62 µg/mL (≈ 0.585 µM).

Question: And the IC50 (MCF7 [9])?
Answer: Its IC50 is 0.186 µg/mL (≈ 0.176 µM).

Question: What about the IC50 [10] of the same molecule?
Answer: The IC50 was 0.384 µg/mL (≈ 0.363 µM).

Question: And the IC50 (A498)?
Answer: The IC50 was 0.187 µg/mL (≈ 0.177 µM).

Question: And the IC50 [11]?
Answer: Its IC50 is 0.187 µg/mL (≈ 0.177 µM).

Question: What about the IC50 (EVSA-T) of the same molecule?
Answer: Its IC50 is 0.221 µg/mL (≈ 0.209 µM).

Question: What about the IC50 (WiDr) of the same molecule?
Answer: Its IC50 is 0.308 µg/mL (≈ 0.291 µM).
